This passage reports inhibition results from PMC9037111, “Structure-based design, synthesis, and biological evaluation of novel piperine–resveratrol hybrids as antiproliferative agents targeting SIRT-2” (RSC Advances, 2021).

Holding throughout (assay): cells
Common to all, as to set-up: species or system NCI-60 human tumour cell lines; NCI-60 one-dose screen at 10 uM, percent growth inhibition versus untreated control cells

The test system of one assay is NCI-H522. To be noted: Homo sapiens, NCI-H522; growth inhibition, one dose; read-out: Growth% inhibition / 5h.
The subject of a further assay is K-562. The conditions noted are these: Homo sapiens, K562; growth inhibition, one dose; read-out: Growth% inhibition / 5h.
In another assay the test system is MALME-3M. To be noted: Homo sapiens, Malme-3M; growth inhibition, one dose; read-out: Growth% inhibition / 5h.
Another assay has as its system PC-3. The conditions noted are these: Homo sapiens, PC-3; growth inhibition, one dose; read-out: Growth% inhibition / 5h.
The next assay has as its system HL-60(TB). The conditions noted are these: Homo sapiens, HL-60; growth inhibition, one dose; read-out: Growth% inhibition / 5h.
For a further assay, the system named is SK-MEL-28. To be noted: Homo sapiens, SK-MEL-28; growth inhibition, one dose; read-out: Growth% inhibition / 5h.
The next assay relates to LOX IMVI. The conditions noted are these: Homo sapiens, LOX IMVI; growth inhibition, one dose; read-out: Growth% inhibition / 5h.
The next assay concerns T-47D. The conditions noted are these: Homo sapiens, T47D; growth inhibition, one dose; read-out: Growth% inhibition / 5h.
Another assay has as its system EKVX. To be noted: Homo sapiens, EKVX; growth inhibition, one dose; read-out: Growth% inhibition / 5h.
For the next assay, the system named is A549/ATCC. To be noted: Homo sapiens, A549; growth inhibition, one dose; read-out: Growth% inhibition / 5h.
The next assay has as its system HCT-116. The conditions noted are these: Homo sapiens, HCT-116; growth inhibition, one dose; read-out: Growth% inhibition / 5h.
In another assay the test system is SF-268. To be noted: Homo sapiens, SF-268; growth inhibition, one dose; read-out: Growth% inhibition / 5h.
For another assay, the system named is MOLT-4. The conditions noted are these: Homo sapiens, MOLT-4; growth inhibition, one dose; read-out: Growth% inhibition / 5h.
A further assay relates to SNB-19. To be noted: Homo sapiens, SNB-19; growth inhibition, one dose; read-out: Growth% inhibition / 5h.
Another assay has as its system OVCAR-5. To be noted: Homo sapiens, OVCAR-5; growth inhibition, one dose; read-out: Growth% inhibition / 5h.
The test system of the next assay is SF-539. To be noted: Homo sapiens, SF-539; growth inhibition, one dose; read-out: Growth% inhibition / 5h.
For a further assay, the system named is CAKI-1. The conditions noted are these: Homo sapiens, CAKI-1; growth inhibition, one dose; read-out: Growth% inhibition / 5h.
The subject of the next assay is 786-0. To be noted: Homo sapiens, 786-0; growth inhibition, one dose; read-out: Growth% inhibition / 5h.

Each structure is given as a SMILES string.

For `C/C(=N\NC(=O)/C=C/C=C/c1ccc2c(c1)OCO2)c1ccc(Br)cc1` [5h, (2E,4E)-5-(Benzo[d][1,3]dioxol-5-yl)-N′-((E)-1-(4-bromophenyl)ethylidene)penta-2,4-dienehydrazide], the inhibition at 10 µM worked out at 19.9% in the assay on NCI-H522; 40.1% in the assay with K-562; 28.7% in the assay with MALME-3M; 30.9% in the assay with PC-3; 15.9% in the assay on HL-60(TB); 14.2% in the assay on SK-MEL-28. The inhibition at 10 µM in the assay with LOX IMVI is 38.3%; in the assay on T-47D, 65%; in the assay on EKVX, 25%; in the assay on A549/ATCC, 12.5%; in the assay with HCT-116 it was 12.3%; in the assay with SF-268, 32.5%. Also, the inhibition at 10 µM amounted to 25.3% in the assay on MOLT-4; 14.5% in the assay with SNB-19; 10.7% in the assay on OVCAR-5; 12.5% in the assay on SF-539; 28.1% in the assay on CAKI-1; 14.6% in the assay with 786-0.
